Legend:
[1] = Dissociation constant, pKa of the compound by capillary electrophoresis method; format: physicochemical
[2] = Volume of distribution at steady state in Sprague-Dawley rat at 0.5 mg/kg, iv; format: ADME, organism-based; conditions: in vivo, read-out: Vdss
[3] = Kinetic solubility of the compound in simulated intestinal fluid; format: physicochemical; conditions: simulated gi fluid
[4] = Oral bioavailability in Sprague-Dawley rat at 10 mg/kg; format: ADME, organism-based; conditions: in vivo

Compound	pKa [1]	other results
CC(C)COc1ncc(-c2cc(F)c(-c3nnc(S(=O)(=O)C4CCC4)[nH]3)cc2F)cc1Cl	–	Vd [2]: 0.7 L/kg
CC(=O)NS(=O)(=O)c1cc(F)c(COc2ccc(Cl)c(Cl)c2)cc1F	3.7	–
CS(=O)(=O)NC(=O)c1cc(F)c(COc2ccc(Cl)c(Cl)c2)cc1F	3.1	–
O=c1[nH]c(-c2cc(F)c(COc3ccc(Cl)c(Cl)c3)cc2F)no1	4.3	–
O=S(=O)(CC1CC1)c1nnc(-c2cc(F)c(-c3cnc(Oc4ccccc4C(F)(F)F)c(Cl)c3)cc2F)[nH]1	–	Kinetic solubility [3]: 101 µM; Vd [2]: 0.37 L/kg; bioavailability [4]: 140%

The next lines start with results.

pKa [1]	Compound	other results
3.4	O=C(O)CNC(=O)c1cc(F)c(COc2ccc(Cl)c(Cl)c2)cc1F	–
4.8	CS(=O)(=O)c1nnc(-c2cc(F)c(COc3ccc(Cl)c(Cl)c3)cc2F)[nH]1	–
3.1	O=C(O)c1cc(F)c(COc2ccc(Cl)c(Cl)c2)cc1F	–
